For the experiment, the system named is KB. As to the kind of experiment: Cytotoxicity against human KB cells. Format: functional, cell-based.

≈ marks a conversion by molar mass, not a printed value.

Data on four compounds can be found in ChEMBL document CHEMBL1158084, “Cytotoxic diterpenoids from the soft coral Sarcophyton crassocaule” (J Nat Prod, 2006).

Broadly, the IC50 is the concentration needed to halve the response being measured. Higher therefore signals a need for much substance.

On to `COC(=O)/C1=C/C=C(/C(C)C)CCC2=CCC[C@](C)(OC2=O)C(=O)CC1` [SARCRASSIN E], for which the concentration for half-maximal inhibition (IC50) stood at 13 µg/mL (≈ 36.1 µM).

Compound `COC(=O)/C1=C/C=C(/C(C)C)CCC2=CCC[C@](C)(OC2=O)[C@H](OC(C)=O)CC1` [SARCRASSIN D] showed a 50% inhibitory concentration (IC50) of 4 µg/mL (≈ 9.89 µM).

Regarding `COC(=O)/C1=C\C=C(\C(C)C)CCC2=CCC[C@](C)(OC2=O)[C@@H](OC(C)=O)CC1` [EMBLIDE], the concentration for half-maximal inhibition (IC50) was determined as 5 µg/mL (≈ 12.4 µM). This IC50 and that of the compound before are within 1.5-fold of each other.

As for `COC(=O)/C1=C\[C@@H]2O[C@@]2(C(C)C)CC/C(C(=O)OC)=C/CC[C@]2(C)O[C@H]2CC1`, the 50% inhibitory concentration (IC50) was determined as 5 µg/mL (≈ 12.7 µM).
